Test results reported in patent US20210145830A1, “MATERIALS AND METHODS FOR TREATING CANCER” (Mayo Foundation for Medical Education and Research, priority 2018, published 2021).
Entries after “also recorded” stand apart in the source; their conditions may differ.

Assays:
Format in all cases: cell-based
CART19 cells [1] = assay: Th2/Th1 T cell subtype analysis during CART19 expansion; details: irradiated JeKo-1; TP0903 10-30 nM; day 3
Method: FIG. 22A-C. In vitro experiment for the combination of CART19 and TP0903. A. CART19 were cocultured at different effector-to-target ratio (E:T) with luciferase-positive JeKo-1. At 48 hours, cell killing was assessed by luminescence. […] The means and SEM are shown (**, p<0.005, *, p<0.05, one-way ANOVA analysis). n.s., not statistically significant. B. CART19 degranulation assay and cytokine production in the presence of TP0903. CART19 were cocultured with JeKo-1 for 4 hours in the presence of TP0903 doses of TP0903 (10-65 nM). […] C. Th2/Th1 T cell subtype analysis during CART19 expansion in the presence pf TP0903. CART19 cells were stimulated with lethally irradiated (120 Gy) JeKo-1 cell lines in the presence of increasing doses of TP0903 (10-30 nM). At the day 3, Th1 and Th2 cells were defined using CD4, CCR6, CCR4 and CXCR3 expression. […] The means and SEM are shown (*, p<0.05, one-way ANOVA analysis). n.s., not statistically significant.

CART19 = CART19 proliferation assay in the presence of TP0903; details: 5 days
Method: FIG. 2 contains an exemplary timeline for a CART19 proliferation assay in the presence of TP0903. UTDs or CART19 were incubated with Jeko in the presence of TP0903 in 1:1 ratio. At day 5, total T cell numbers were evaluated with CountBright quantification.
T cells were washed and re-suspended at 1×10^7/mL in 100 μL of phosphate-buffered saline and labeled with 100 μL of carboxyfluorescein succinimidyl ester (CFSE) 2.5 μM (Life Technologies) for 5 minutes at 37° C. The reaction was then quenched with cold R10, and the cells were washed three times. Targets were irradiated at a dose of 100 Gy. T cells were incubated at a 1:1 ratio with irradiated target cells for 120 hours. Cells were then harvested, stained for CD3, CAR and Live Dead aqua (Invitrogen), and Countbright beads (Invitrogen) were added prior to flow cytometric analysis.
UTDs or CART19 were incubated with Jeko cell line or primary CLL cells in the presence of TP0903, at 1:1 ratio for 5 days. At the end of the experiment, cells were harvested and stained for CD3, live dead staining was performed, and counti bright beads were added prior to flow cytometric analyses (FIG. 2). Absolute T cell numbers were calculated based on this. […] Low doses of TP0903 (10 nM) increased the number of CART19 cells. A high dose of TP0903 (>100 nM) decreased the number of CART19.

CART19 cells [2] = assay: RNA-seq of TP0903 treated vs non-treated CART19 cells
Method: FIG. 24A-B. A. Western blot analysis of p-LCK inhibition by TP0903 in CART19 cells. CART19 cells were incubated with lethally irradiated JeKo-1 in the presence of TP0903 at a 1 to 3 ratio for 24 hours. After the incubation, CART19 cells were purified with anti-CD19 micro beads. […] B. Comparison of gene expression between TP0903 treated CART19 cells and non-treated CART19 cells subpopulations using RNA-seq. CART19 cells from three biological replicates were thawed and stimulated with irradiated JeKo-1 (120 Gy) for 5 days. Each sample was treated with either 30 nM TP0903 (treated condition) or DMSO (untreated condition). Representative flow cytometric analysis of CART19 cells before RNA isolation (right). RNA-seq was performed on an Illumina […] by the Genomic Sequencing Core at Mayo Clinic.
FIG. 28A-E. A, Western blot analysis of p-LCK inhibition by TP-0903 in CART19 cells. CART19 cells were incubated with lethally irradiated JeKo-1 in the presence of TP0903 at a 1 to 3 ratio for 24 hours. After the incubation, CART19 cells were purified with anti-CD19 micro beads. B, Representative flow cytometric analysis of CART19 cells before RNA isolation. Principal component analysis (PCA) from RNA-seq analysis of untreated cells and cells treated with 30 nM of TP-0903. […]

CN1CCN(Cc2ccc(Nc3ncc(Cl)c(Nc4ccccc4S(=O)(=O)N(C)C)n3)cc2)CC1 [TP0903]
Th1/Th2 phenotype (CD4, CCR6, CCR4, CXCR3) (CART19 cells [1]): major shift toward Th1 phenotype
CART cell specific proliferation (CART19; 1:1 with Jeko or primary CLL cells): did not impair; also recorded: does not inhibit
number of CART19 cells (CART19; high dose of TP0903 (>100 nM)): decreased
number of CART19 cells (CART19; low doses of TP0903 (10 nM)): increased
immune synapse related genes (cell junction, cell migration) (CART19 cells [2]; activated CART cells treated with TP0903): significantly increased
differentially expressed genes in transcriptome vs non-treated cells (CART19 cells [2]; activated CART cells treated with TP0903 (30 nM)): More than 100 genes
